One sequence from patent US8470964B2, “Peptides derived from NCAM (FGLs)” (Enkam Pharmaceuticals A/S, priority 2007, dated 2013) can be followed below.

For this assay, the system named is (25-35) β-amyloid peptide fragment induced cognitive deficits model in rats. Briefly: (25-35) β-amyloid induced cognitive deficits, intranasal administration, SRT. The assay is classed as in vivo, rat. The following applies: intranasal, 15 daily doses from day 7 to 21, test 24 hrs after the last administration. The text has this: FIG. 9. Effects of intranasal administration of FGLs on the β-amyloid neurotoxicity induced deficit on performance in the Social Recognition Test. Rats received an intranasal administration of FGLs at the stated doses or vehicle daily at days 7 to 21 after i.c.v. administration of the (25-35) β-amyloid (A-β) fragment. 8-10 animals per group. Results are expressed as Means and SEM of Recognition Ratio and analyzed by one-sample t-test: **p<0.05.
In this study, the (25-35) β-amyloid peptide fragment induced cognitive deficits model in rats was used to investigate the dose-response (0.08, 0.32 or 1.28 mg/kg) effect of FGLs administered intranasally daily for 15 doses from day 7 to day 21 post β-amyloid peptide i.c.v. injection. The social memory performance was evaluated using the SRT, 22 days after the β-amyloid injection. A statistically significant impairment of short-term memory was observed as a consequence of the (25-35) β-amyloid neurotoxicity in the rats receiving the (25-35) β-amyloid fragment plus vehicle.

As for “EVYVVAENQQGKSKA [FGL, reference compound]”, the “minimum effective dose, impaired short-term memory (SRT)” value is on record as 1.28 mg/kg.
